Results from ChEMBL document CHEMBL4622911, “A cell-based fluorescent assay for FAP inhibitor discovery” (Bioorg Med Chem Lett, 2020).

Assays:
Type in all cases: cell-based
Conditions in all cases: U-87MG ATCC
[1] = biological target: Prolyl endopeptidase FAP (Homo sapiens) (UniProt Q12884); experiment: Inhibition of FAP in human U87MG cells using Suc-Gly-Pro-AMC as substrate at 1 uM incubated for 90 mins by fluorescence based assay relative to control
[2] = biological target: Prolyl endopeptidase FAP (Homo sapiens) (UniProt Q12884); experiment: Inhibition of FAP in human U87MG cells using Z-Gly-Pro-AMC as substrate at 1 uM incubated for 90 mins by fluorescence based assay relative to control
[3] = biological target: Prolyl endopeptidase FAP (Homo sapiens) (UniProt Q12884); experiment: Inhibition of FAP in human U87MG cells using Gly-Pro-AMC as substrate at 1 uM incubated for 90 mins by fluorescence based assay relative to control

Prolyl endopeptidase FAP (Homo sapiens), sequence (Q12884 whole entry): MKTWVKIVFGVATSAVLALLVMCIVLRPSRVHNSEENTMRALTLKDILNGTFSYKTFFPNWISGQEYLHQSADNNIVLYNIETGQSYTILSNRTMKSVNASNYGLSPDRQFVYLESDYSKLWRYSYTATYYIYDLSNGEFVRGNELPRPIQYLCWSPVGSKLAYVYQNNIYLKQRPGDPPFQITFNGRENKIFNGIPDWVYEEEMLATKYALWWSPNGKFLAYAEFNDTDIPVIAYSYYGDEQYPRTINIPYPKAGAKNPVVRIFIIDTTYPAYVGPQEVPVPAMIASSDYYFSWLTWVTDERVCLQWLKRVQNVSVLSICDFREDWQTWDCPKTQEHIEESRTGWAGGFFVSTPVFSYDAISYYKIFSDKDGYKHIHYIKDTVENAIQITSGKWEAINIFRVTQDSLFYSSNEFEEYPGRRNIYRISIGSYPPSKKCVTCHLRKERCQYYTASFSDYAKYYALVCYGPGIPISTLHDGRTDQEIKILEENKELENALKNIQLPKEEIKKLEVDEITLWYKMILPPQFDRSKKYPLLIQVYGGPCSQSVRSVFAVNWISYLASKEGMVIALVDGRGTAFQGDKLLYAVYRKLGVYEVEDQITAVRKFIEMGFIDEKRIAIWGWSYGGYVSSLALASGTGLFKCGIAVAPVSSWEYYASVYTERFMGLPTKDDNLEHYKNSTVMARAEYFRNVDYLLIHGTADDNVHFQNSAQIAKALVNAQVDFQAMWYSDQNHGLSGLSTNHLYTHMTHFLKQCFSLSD

`N#C[C@@H]1CC(F)(F)CN1C(=O)CNC(=O)c1ccnc2ccccc12` showed an inhibition [1] of 91.9%, an inhibition [2] of 30.7% and an inhibition [3] of 17.5%.
